Laboratory results taken from patent US9326506B2, “Preparation method, agricultural composition and applications of natural brassinolide analogs” (CHENGDU NEWSUN CROPSCIENCE CO., LTD, priority 2012, dated 2016).

Tested on: rice
Test: Low temperature assay on rice seedlings
Assay type: in vivo
Protocol: According to a low temperature assay, we measured parameters including plant height, number of leaf, area of leaf, number of tiller, weight of root at low temperature to completely determine effects of the natural brassinolide analogues on the resistance to low temperature of a plant.
The natural brassinolide analogues, BR1, BR2, BR3, BR4, BR5 and BR6, used herein, were those prepared by the method of Example 1. Respectively the analogues were dissolved into 95% (V/V) ethanol solution, and then diluted with pure water to 1 mg/L, 0.1 mg/L, 0.01 mg/L, 0.001 mg/L and 0.0001 mg/L. In addition, pure water was used as a control.
After rice seeds were disinfected by using 5% sodium hypochlorite solution treatment, they were rinsed with distilled water until their pH>7, placed into a petri dish in a dark incubator, and cultured by using water at 30° C.±2° C. for 9 days. Then respectively the nine-day-old etiolated seedlings of rice were immersed in the above solutions containing different concentrations of the natural brassinolide analogues or pure water, and cultured at the temperature of 1° C., 2° C., 3° C., 4° C. and 5° C. for 24 hr. The parameters including plant height, area of leaf and weight of root after 3, 6, 9 and 12 days and number of leaf and number of tiller after 12 days were measured.

## CC(C)[C@H](C)[C@@H](O)[C@H](O)[C@@H](C)[C@H]1CCC2C3CC(=O)C4C[C@H](O)CC[C@]4(C)C3CC[C@@]21C (stereo partly shown) [BR4]
0.0001 mg/l, 1 °C, 3 days
  Area of leaf: 9.8 cm^2
  Height: 6.8 cm
  Weight of root: 2.8 g
0.0001 mg/l, 1 °C, 6 days
  Area of leaf: 11 cm^2
  Height: 6.9 cm
  Weight of root: 3 g
0.0001 mg/l, 1 °C, 9 days
  Area of leaf: 12.2 cm^2
  Height: 7 cm
  Weight of root: 3.1 g
0.0001 mg/l, 1 °C, 12 days
  Area of leaf: 13 cm^2
  Height: 7.2 cm
  Number of leaf: 3
  Number of tiller: 3
  Weight of root: 3.5 g
0.0001 mg/l, 2 °C, 3 days
  Area of leaf: 10 cm^2
  Height: 6.8 cm
  Weight of root: 2.8 g
0.0001 mg/l, 2 °C, 6 days
  Area of leaf: 11.7 cm^2
  Height: 7 cm
  Weight of root: 3.0 g
0.0001 mg/l, 2 °C, 9 days
  Area of leaf: 12 cm^2
  Height: 7.1 cm
  Weight of root: 3.2 g
0.0001 mg/l, 2 °C, 12 days
  Area of leaf: 13 cm^2
  Height: 7.2 cm
  Number of leaf: 3
  Number of tiller: 3
  Weight of root: 3.7 g
0.0001 mg/l, 3 °C, 3 days
  Area of leaf: 10 cm^2
  Height: 6.9 cm
  Weight of root: 2.5 g
0.0001 mg/l, 3 °C, 6 days
  Area of leaf: 11.8 cm^2
  Height: 7.1 cm
  Weight of root: 2.6 g
0.0001 mg/l, 3 °C, 9 days
  Area of leaf: 12.1 cm^2
  Height: 7.4 cm
  Weight of root: 2.9 g
0.0001 mg/l, 3 °C, 12 days
  Area of leaf: 13 cm^2
  Height: 7.4 cm
  Number of leaf: 3
  Number of tiller: 2
  Weight of root: 2.9 g
0.0001 mg/l, 4 °C, 3 days
  Area of leaf: 10 cm^2
  Height: 6.9 cm
  Weight of root: 2.5 g
0.0001 mg/l, 4 °C, 6 days
  Area of leaf: 11.5 cm^2
  Height: 7.1 cm
  Weight of root: 2.6 g
0.0001 mg/l, 4 °C, 9 days
  Area of leaf: 13 cm^2
  Height: 7.5 cm
  Weight of root: 2.9 g
0.0001 mg/l, 4 °C, 12 days
  Area of leaf: 13.4 cm^2
  Height: 7.5 cm
  Number of leaf: 3
  Number of tiller: 2
  Weight of root: 2.9 g
0.0001 mg/l, 5 °C, 3 days
  Area of leaf: 10.2 cm^2
  Height: 7.0 cm
  Weight of root: 2.5 g
0.0001 mg/l, 5 °C, 6 days
  Area of leaf: 12 cm^2
  Height: 7.3 cm
  Weight of root: 2.5 g
0.0001 mg/l, 5 °C, 9 days
  Area of leaf: 13 cm^2
  Height: 7.5 cm
  Weight of root: 2.9 g
0.0001 mg/l, 5 °C, 12 days
  Area of leaf: 13.4 cm^2
  Height: 7.6 cm
  Number of leaf: 3
  Number of tiller: 2
  Weight of root: 2.9 g
0.001 mg/l, 1 °C, 3 days
  Area of leaf: 10 cm^2
  Height: 6.9 cm
  Weight of root: 2.8 g
0.001 mg/l, 1 °C, 6 days
  Area of leaf: 11.3 cm^2
  Height: 7 cm
  Weight of root: 3.1 g
0.001 mg/l, 1 °C, 9 days
  Area of leaf: 12.6 cm^2
  Height: 7.1 cm
  Weight of root: 3.2 g
0.001 mg/l, 1 °C, 12 days
  Area of leaf: 13.6 cm^2
  Height: 7.4 cm
  Number of leaf: 3
  Number of tiller: 3
  Weight of root: 3.7 g
0.001 mg/l, 2 °C, 3 days
  Area of leaf: 9.8 cm^2
  Height: 6.9 cm
  Weight of root: 2.8 g
0.001 mg/l, 2 °C, 6 days
  Area of leaf: 11.6 cm^2
  Height: 7 cm
  Weight of root: 3.0 g
0.001 mg/l, 2 °C, 9 days
  Area of leaf: 12 cm^2
  Height: 7.1 cm
  Weight of root: 3 g
0.001 mg/l, 2 °C, 12 days
  Area of leaf: 13.1 cm^2
  Height: 7.3 cm
  Number of leaf: 3
  Number of tiller: 3
  Weight of root: 3.9 g
0.001 mg/l, 3 °C, 3 days
  Area of leaf: 10 cm^2
  Height: 7 cm
  Weight of root: 2.5 g
0.001 mg/l, 3 °C, 6 days
  Area of leaf: 12 cm^2
  Height: 7.2 cm
  Weight of root: 2.6 g
0.001 mg/l, 3 °C, 9 days
  Area of leaf: 12.2 cm^2
  Height: 7.4 cm
  Weight of root: 2.9 g
0.001 mg/l, 3 °C, 12 days
  Area of leaf: 13 cm^2
  Height: 7.5 cm
  Number of leaf: 3
  Number of tiller: 2
  Weight of root: 2.9 g
0.001 mg/l, 4 °C, 3 days
  Area of leaf: 10 cm^2
  Height: 7.1 cm
  Weight of root: 2.5 g
0.001 mg/l, 4 °C, 6 days
  Area of leaf: 12 cm^2
  Height: 7.3 cm
  Weight of root: 2.6 g
0.001 mg/l, 4 °C, 9 days
  Area of leaf: 13 cm^2
  Height: 7.4 cm
  Weight of root: 2.9 g
0.001 mg/l, 4 °C, 12 days
  Area of leaf: 13.1 cm^2
  Height: 7.5 cm
  Number of leaf: 3
  Number of tiller: 2
  Weight of root: 2.9 g
0.001 mg/l, 5 °C, 3 days
  Area of leaf: 10.2 cm^2
  Height: 7.2 cm
  Weight of root: 2.8 g
0.001 mg/l, 5 °C, 6 days
  Area of leaf: 14 cm^2
  Height: 7.4 cm
  Weight of root: 2.9 g
0.001 mg/l, 5 °C, 9 days
  Area of leaf: 15.4 cm^2
  Height: 7.4 cm
  Weight of root: 3.0 g
0.001 mg/l, 5 °C, 12 days
  Area of leaf: 16 cm^2
  Height: 7.9 cm
  Number of leaf: 3
  Number of tiller: 3
  Weight of root: 3.7 g
0.01 mg/l, 1 °C, 3 days
  Area of leaf: 9.2 cm^2
  Height: 6.7 cm
  Weight of root: 2.8 g
0.01 mg/l, 1 °C, 6 days
  Area of leaf: 11.6 cm^2
  Height: 7.1 cm
  Weight of root: 3.0 g
0.01 mg/l, 1 °C, 9 days
  Area of leaf: 12.4 cm^2
  Height: 7.4 cm
  Weight of root: 3.1 g
0.01 mg/l, 1 °C, 12 days
  Area of leaf: 13.6 cm^2
  Height: 7.5 cm
  Number of leaf: 3
  Number of tiller: 3
  Weight of root: 3.9 g
0.01 mg/l, 2 °C, 3 days
  Area of leaf: 10 cm^2
  Height: 7 cm
  Weight of root: 2.8 g
0.01 mg/l, 2 °C, 6 days
  Area of leaf: 11 cm^2
  Height: 7.2 cm
  Weight of root: 3 g
0.01 mg/l, 2 °C, 9 days
  Area of leaf: 12.5 cm^2
  Height: 7.4 cm
  Weight of root: 3 g
0.01 mg/l, 2 °C, 12 days
  Area of leaf: 13.4 cm^2
  Height: 7.5 cm
  Number of leaf: 3
  Number of tiller: 3
  Weight of root: 3.2 g
0.01 mg/l, 3 °C, 3 days
  Area of leaf: 10.2 cm^2
  Height: 7 cm
  Weight of root: 2.5 g
0.01 mg/l, 3 °C, 6 days
  Area of leaf: 12 cm^2
  Height: 7.3 cm
  Weight of root: 2.6 g
0.01 mg/l, 3 °C, 9 days
  Area of leaf: 12.1 cm^2
